Reference: ChEMBL document CHEMBL6083293, “Novel Benzimidazole Derivatives as Potent Inhibitors of Microsomal Prostaglandin E2 Synthase 1 for the Potential Treatment of Inflammation, Pain, and Fever” (J Med Chem, 2024)
The source made the active and inactive calls. The rule behind the calls is not given here.

Tests used:
[1] = Metabolic stability in guinea pig liver microsome assessed as half life; format: ADME, Cavia porcellus; details: liver microsomes
[2] = Metabolic stability in human liver microsome assessed as intrinsic clearance; format: ADME; details: liver microsomes, read-out: CLH
[3] = Metabolic stability in human liver microsome assessed as half life; format: ADME; details: liver microsomes
[4] = Metabolic stability in guinea pig liver microsome assessed as intrinsic clearance; format: ADME, Cavia porcellus; details: liver microsomes, read-out: CLH
[5] = Volume of distribution at steady state in guinea pig at 2 mg/kg, iv; format: ADME, organism-based, Cavia porcellus; details: in vivo, read-out: Vdss
[6] = AUC (0 to infinity) in guinea pig at 20 mg/kg, po; format: ADME, organism-based, Cavia porcellus; details: in vivo
[7] = Half life in guinea pig at 20 mg/kg, po; format: ADME, organism-based, Cavia porcellus; details: in vivo
[8] = Cmax in guinea pig at 20 mg/kg, po; format: ADME, organism-based, Cavia porcellus; details: in vivo
[9] = Initial plasma concentration in guinea pig at 2 mg/kg, iv; format: ADME, organism-based, Cavia porcellus
[10] = Half life in guinea pig at 2 mg/kg, iv; format: ADME, organism-based, Cavia porcellus; details: in vivo
[11] = Oral bioavailability in guinea pig at 20 mg/kg; format: ADME, organism-based, Cavia porcellus; details: in vivo
[12] = Clearance in guinea pig at 2 mg/kg, iv; format: ADME, organism-based, Cavia porcellus; details: in vivo
[13] = target: T1, Prostaglandin E synthase (Homo sapiens) (UniProt O14684); experiment: Inhibition of mPGES-1 in human M1-like MDM cells assessed as reduction in TXB2 formation at 10 uM; format: cell-based
T1 sequence (whole entry): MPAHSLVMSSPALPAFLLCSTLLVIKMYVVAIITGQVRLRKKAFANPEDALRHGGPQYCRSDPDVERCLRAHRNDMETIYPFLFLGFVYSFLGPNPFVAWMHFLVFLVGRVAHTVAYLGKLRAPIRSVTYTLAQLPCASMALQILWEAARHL

Cavia porcellus [14] = experiment: Anti-inflammatory activity against carrageenan-induced paw edema in guinea pig assessed as reduction in paw swelling at 10 mg/kg, po measured at 240 mins; format: functional, organism-based
Cavia porcellus [15] = experiment: Anti-hyperalgesic activity against carrageenan-induced guinea pig mechanical hyperalgesia model at 10 mg/kg, po; format: functional, organism-based
[16] = Toxicity in guinea pig assessed as increase in sinusoidal capillary diameter at 10 mg/kg, po; format: organism-based, Cavia porcellus; details: in vivo
[17] = target: T1, Prostaglandin E synthase (Homo sapiens); experiment: Inhibition of mPGES-1 in human M1-like MDM cells assessed as reduction in PGE2 formation at 10 uM; format: cell-based
[18] = Toxicity in guinea pig assessed as increase in number of vacuolated hepatocytes at 10 mg/kg, po; format: organism-based, Cavia porcellus; details: in vivo
[19] = Hepatotoxicity in guinea pig assessed as increase in ALP level in plasma at 10 mg/kg, po; format: toxicity, organism-based, Cavia porcellus; details: in vivo
[20] = Cytotoxicity against human MDM cells assessed as metabolic activity at 3 uM measured after 48 hrs by MTT assay; format: toxicity, cell-based
[21] = Hepatotoxicity in guinea pig assessed as effect on ALT level in plasma at 30 mg/kg, po; format: toxicity, organism-based, Cavia porcellus; details: in vivo
[22] = Cytotoxicity against human MDM cells assessed as LDH release at 3 uM measured after 3 hrs; format: toxicity, cell-based
[23] = target: T2, Prostaglandin G/H synthase 1 (Ovis aries) (UniProt P05979); experiment: Inhibition of ovine COX-1 at 1 uM using arachidonic acid as substrate preincubated for 6 mins followed by substrate addition and measured after 10 mins by RP-HPLC analysis; details: time 16.0 min
T2 sequence (whole entry): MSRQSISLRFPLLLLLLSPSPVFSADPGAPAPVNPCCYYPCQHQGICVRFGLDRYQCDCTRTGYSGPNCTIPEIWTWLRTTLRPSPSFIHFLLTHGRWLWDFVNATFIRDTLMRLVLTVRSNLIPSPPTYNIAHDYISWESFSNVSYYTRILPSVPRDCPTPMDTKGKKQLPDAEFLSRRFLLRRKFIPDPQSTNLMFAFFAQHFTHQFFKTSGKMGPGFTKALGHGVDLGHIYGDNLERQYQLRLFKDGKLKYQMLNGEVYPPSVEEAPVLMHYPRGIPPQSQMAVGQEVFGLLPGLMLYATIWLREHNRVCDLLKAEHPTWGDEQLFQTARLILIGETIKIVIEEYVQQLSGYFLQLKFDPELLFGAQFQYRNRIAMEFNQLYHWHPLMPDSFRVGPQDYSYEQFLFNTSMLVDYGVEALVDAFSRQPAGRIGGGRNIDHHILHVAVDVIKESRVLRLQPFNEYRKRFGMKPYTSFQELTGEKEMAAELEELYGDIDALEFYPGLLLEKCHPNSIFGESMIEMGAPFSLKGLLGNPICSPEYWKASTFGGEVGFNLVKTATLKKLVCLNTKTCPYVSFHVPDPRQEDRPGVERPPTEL

[24] = Toxicity in guinea pig assessed as increase in number of vacuolated hepatocytes at 30 mg/kg, po; format: organism-based, Cavia porcellus; details: in vivo
[25] = target: T3, Polyunsaturated fatty acid 5-lipoxygenase (Homo sapiens) (UniProt P09917); experiment: Inhibition of human recombinant 5-LOX expressed in Escherichia coli BL21(DE3) at 1 uM using arachidonic acid as substrate preincubated with compound for 15 mins followed by substrate and CaCl2 addition measured after 10 mins by RP-HPLC analysis; details: time 25.0 min
T3 sequence (whole entry): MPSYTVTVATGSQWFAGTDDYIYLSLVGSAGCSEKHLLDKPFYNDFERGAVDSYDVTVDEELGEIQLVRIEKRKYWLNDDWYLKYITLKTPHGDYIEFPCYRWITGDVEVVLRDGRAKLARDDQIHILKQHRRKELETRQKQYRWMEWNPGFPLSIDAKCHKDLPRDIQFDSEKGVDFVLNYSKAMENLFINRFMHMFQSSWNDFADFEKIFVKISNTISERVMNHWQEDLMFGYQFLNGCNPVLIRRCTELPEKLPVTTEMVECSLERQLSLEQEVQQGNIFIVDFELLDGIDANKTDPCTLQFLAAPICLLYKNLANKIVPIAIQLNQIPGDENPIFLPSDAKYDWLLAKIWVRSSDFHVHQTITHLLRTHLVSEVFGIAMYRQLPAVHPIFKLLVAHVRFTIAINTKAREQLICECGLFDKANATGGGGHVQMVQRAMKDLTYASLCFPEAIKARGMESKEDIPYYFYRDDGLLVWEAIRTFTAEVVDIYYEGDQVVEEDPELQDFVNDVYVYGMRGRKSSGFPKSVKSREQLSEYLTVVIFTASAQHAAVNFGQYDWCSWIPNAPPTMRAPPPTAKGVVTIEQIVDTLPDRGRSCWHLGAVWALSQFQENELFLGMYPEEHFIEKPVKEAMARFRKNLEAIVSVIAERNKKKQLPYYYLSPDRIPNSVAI

[26] = target: T4, Arachidonate 5-lipoxygenase-activating protein (Homo sapiens) (UniProt P20292); experiment: Inhibition of FLAP in calcium ionophore A23187-stimulated human Neutrophil cells at 1 uM preincubated for 15 mins followed by calcium ionophore A23187 stimulation for 10 mins by RP-HPLC analysis; format: cell-based; details: time 25.0 min
T4 sequence (whole entry): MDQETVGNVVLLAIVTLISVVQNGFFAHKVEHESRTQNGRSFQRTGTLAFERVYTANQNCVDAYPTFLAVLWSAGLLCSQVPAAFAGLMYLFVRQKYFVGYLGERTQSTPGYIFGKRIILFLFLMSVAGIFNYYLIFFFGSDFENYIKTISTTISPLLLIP

[27] = Toxicity in guinea pig assessed as increase in sinusoidal capillary diameter at 30 mg/kg, po; format: organism-based, Cavia porcellus; details: in vivo
[28] = Hepatotoxicity in guinea pig assessed as effect on AST level in plasma at 30 mg/kg, po; format: toxicity, organism-based, Cavia porcellus; details: in vivo
[29] = Hepatotoxicity in guinea pig assessed as increase in ALP level in plasma at 30 mg/kg, po; format: toxicity, organism-based, Cavia porcellus; details: in vivo
[30] = target: T5, Prostaglandin G/H synthase 2 (Homo sapiens) (UniProt P35354); experiment: Inhibition of human recombinant COX-2 at 1 uM using arachidonic acid as substrate preincubated for 6 mins followed by substrate addition and measured after 10 mins by RP-HPLC analysis; details: time 16.0 min
T5 sequence (whole entry): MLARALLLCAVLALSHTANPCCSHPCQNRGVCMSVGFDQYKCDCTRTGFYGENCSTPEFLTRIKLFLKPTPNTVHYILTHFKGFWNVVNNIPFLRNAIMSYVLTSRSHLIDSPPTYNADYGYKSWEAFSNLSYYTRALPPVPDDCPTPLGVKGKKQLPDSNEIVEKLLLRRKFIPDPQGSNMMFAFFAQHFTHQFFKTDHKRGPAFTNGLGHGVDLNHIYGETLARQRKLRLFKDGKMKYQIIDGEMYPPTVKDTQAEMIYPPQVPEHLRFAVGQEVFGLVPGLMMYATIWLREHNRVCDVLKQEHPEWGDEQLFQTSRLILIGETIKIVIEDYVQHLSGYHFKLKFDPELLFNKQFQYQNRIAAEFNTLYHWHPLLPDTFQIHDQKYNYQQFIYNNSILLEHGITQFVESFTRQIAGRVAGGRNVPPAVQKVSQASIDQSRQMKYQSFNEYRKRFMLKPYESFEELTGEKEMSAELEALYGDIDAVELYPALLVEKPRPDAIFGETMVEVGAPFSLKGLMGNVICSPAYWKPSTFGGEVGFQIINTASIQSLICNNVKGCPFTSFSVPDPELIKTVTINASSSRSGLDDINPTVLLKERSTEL

Cavia porcellus [31] = experiment: Anti-hyperalgesic activity against carrageenan-induced guinea pig mechanical hyperalgesia model at 30 mg/kg, po; format: functional, organism-based
Cavia porcellus [32] = experiment: Anti-pyretic activity against LPS-induced guinea pig pyresis model assessed as increase in rectal temperature at 30 mg/kg, po measured at 180 to 240 mins; format: functional, organism-based; details: time 180-240 min
Cavia porcellus [33] = experiment: Anti-inflammatory activity against carrageenan-induced paw edema in guinea pig assessed as inhibition of edema formation at 30 mg/kg, po measured at 240 mins; format: functional; details: 4 h
Cavia porcellus [34] = experiment: Anti-inflammatory activity against carrageenan-induced paw edema in guinea pig assessed as inhibition of edema formation at 30 mg/kg, po measured at 120 mins; format: functional, organism-based

| Compound | half-life [1] | microsomal CLint [2] | half-life [3] | microsomal CLint [4] | Vd [5] | AUC(0-inf) [6] | half-life [7] | Cmax [8] | C0 [9] | half-life [10] | bioavailability [11] | clearance [12] | also measured |
| --- | --- | --- | --- | --- | --- | --- | --- | --- | --- | --- | --- | --- | --- |
| CC(C)(C(=O)NCc1ccc(Cl)c(C(=O)Nc2ccc(-c3nc4cc(C(F)(F)F)ccc4[nH]3)cc2)c1)C(F)(F)F | 103 min | 203 µL/min/mg | 6.8 min | 13.9 µL/min/mg |  |  |  |  |  |  |  |  |  |
| CC(C)(C(=O)NCc1ccc(Cl)c(C(=O)Nc2ccc(Cc3nc4cc(C(F)(F)F)ccc4[nH]3)cc2)c1)C(F)(F)F | 49.3 min | 27.4 µL/min/mg | 51.2 min | 28.2 µL/min/mg |  |  |  |  |  |  |  |  |  |
| O=C(Nc1ccc(-c2nc3cc(C(F)(F)F)ccc3[nH]2)cc1)c1cc(CNC(=O)C2(C(F)(F)F)CCC2)ccc1Cl | 8.5 min | 315 µL/min/mg | 4.4 min | 163 µL/min/mg | 10 L/kg | 620 ng·h/mL | 342 min | 49 ng/mL | 733 ng/mL | 336 min | 16% | 87.7 mL/min/kg |  |
| COc1ccc2c(c1)c(CC(=O)O)c(C)n2C(=O)c1ccc(Cl)cc1 [INDOMETHACIN] |  |  |  |  |  |  |  |  |  |  |  |  | inhibition [13]: inactive; Activity (Cavia porcellus [14]): Active; Activity (Cavia porcellus [15]): Active; Activity [16]: Non-toxic; inhibition [17]: inactive; Activity [18]: Non-toxic; Activity [19]: Toxic |
| CC(C)(C)C(=O)NCc1ccc(Cl)c(C(=O)Nc2ccc(-c3nc4cc(C(F)(F)F)ccc4[nH]3)cc2)c1 | 4.6 min | 247 µL/min/mg | 5.6 min | 302 µL/min/mg |  |  |  |  |  |  |  |  |  |
| O=C(Nc1ccc(-c2nc3cc(C(F)(F)F)ccc3[nH]2)cc1)c1cc(CNC(=O)C2(C(F)(F)F)CC2)ccc1Cl | 185 min | 45.2 µL/min/mg | 30.7 min | < 7.5 µL/min/mg | 4.1 L/kg | 13800 ng·h/mL | 288 min | 1370 ng/mL | 878 ng/mL | 234 min | 61% | 14.9 mL/min/kg | Activity [20]: Non-toxic; Activity [21]: Non-toxic; Activity [22]: Non-toxic; inhibition [23]: Active; Activity [24]: Mild_effect; inhibition [25]: Active; inhibition [26]: Active; Activity [27]: Mild_effect; Activity [28]: Non-toxic; Activity [29]: Non-toxic; inhibition [30]: Active; Activity (Cavia porcellus [31]): Active; Activity (Cavia porcellus [32]): Active; inhibition in vivo at 30 mg/kg (Cavia porcellus [33]): 60%; Activity (Cavia porcellus [34]): Active |
